In ChEMBL document CHEMBL1201862, “PubChem BioAssay data set” (2004):
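Assay format: 96-well plates, 48-hour exposure. Abbreviation: GI50, concentration required for 50% inhibition of growth.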 Active and inactive are the calls of the source. Cut-off read from the data, not from the text of the source: active = GI50 up to about 1.1 µM and inactive = higher.

What was measured:
Assay in all cases: NCI anticancer screen, dose series, 48 h
Hs-578T = tested on: Hs-578T
NCI-H23 = tested on: NCI-H23
NCI-H226 = tested on: NCI-H226
A498 = tested on: A498
COLO 205 = tested on: COLO 205
OVCAR-5 = tested on: OVCAR-5
UO-31 = tested on: UO-31
MDA-MB-435 = tested on: MDA-MB-435
SNB-75 = tested on: SNB-75
IGROV-1 = tested on: IGROV-1
CAKI-1 = tested on: CAKI-1
786-0 = tested on: 786-0
SN12C = tested on: SN12C
OVCAR-3 = tested on: OVCAR-3
MCF7 = tested on: MCF7
LOX IMVI = tested on: LOX IMVI
MDA-MB-231 = tested on: MDA-MB-231
DU-145 = tested on: DU-145
SK-MEL-2 = tested on: SK-MEL-2
SW-620 = tested on: SW-620
HOP-92 = tested on: HOP-92
OVCAR-4 = tested on: OVCAR-4
SNB-19 = tested on: SNB-19
MDA-N = tested on: MDA-N
UACC-62 = tested on: UACC-62
SK-OV-3 = tested on: SK-OV-3
HCC 2998 = tested on: HCC 2998
TK-10 = tested on: TK-10
Malme-3M = tested on: Malme-3M
SF-295 = tested on: SF-295
SF-539 = tested on: SF-539
RXF 393 = tested on: RXF 393
BT-549 = tested on: BT-549
SK-MEL-5 = tested on: SK-MEL-5
NCI/ADR-RES = tested on: NCI/ADR-RES
HCT-15 = tested on: HCT-15
OVCAR-8 = tested on: OVCAR-8
K562 = tested on: K562
UACC-257 = tested on: UACC-257
CCRF-CEM = tested on: CCRF-CEM
T47D = tested on: T47D
EKVX = tested on: EKVX
KM12 = tested on: KM12
PC-3 = tested on: PC-3
SK-MEL-28 = tested on: SK-MEL-28
A549 = tested on: A549
M14 = tested on: M14
MOLT-4 = tested on: MOLT-4
NCI-H460 = tested on: NCI-H460
ACHN = tested on: ACHN
SF-268 = tested on: SF-268
U-251 = tested on: U-251
HCT-116 = tested on: HCT-116
HT-29 = tested on: HT-29
HOP-62 = tested on: HOP-62
HL-60 = tested on: HL-60
NCI-H522 = tested on: NCI-H522

For `CCOP(=O)(OCC)/C(=C/c1cccs1)CC(C)=O`, the GI50 (Hs-578T) was > 100 µM (inactive), the GI50 (NCI-H23) was > 100 µM (inactive) and the GI50 (NCI-H226) was > 100 µM (inactive). The GI50 (A498) was 75.3 µM (inactive), the GI50 (COLO 205) was > 100 µM (inactive) and the GI50 (OVCAR-5) was > 100 µM (inactive). The GI50 (UO-31) was > 100 µM (inactive), the GI50 (MDA-MB-435) was > 100 µM (inactive) and the GI50 (SNB-75) was > 100 µM (inactive). The GI50 (IGROV-1) was > 100 µM (inactive), the GI50 (CAKI-1) was > 100 µM (inactive) and the GI50 (786-0) was > 100 µM (inactive). The GI50 (SN12C) was > 100 µM (inactive), the GI50 (OVCAR-3) was > 100 µM (inactive) and the GI50 (MCF7) was > 100 µM (inactive). For the same compound, the GI50 (LOX IMVI) was > 100 µM (inactive), the GI50 (MDA-MB-231) was > 100 µM (inactive) and the GI50 (DU-145) was > 100 µM (inactive). The GI50 (SK-MEL-2) was > 100 µM (inactive), the GI50 (SW-620) was > 100 µM (inactive) and the GI50 (HOP-92) was > 100 µM (inactive). The GI50 (OVCAR-4) was > 100 µM (inactive), the GI50 (SNB-19) was > 100 µM (inactive) and the GI50 (MDA-N) was > 100 µM (inactive). For the same compound, the GI50 (UACC-62) was > 100 µM (inactive), the GI50 (SK-OV-3) was > 100 µM (inactive) and the GI50 (HCC 2998) was > 100 µM (inactive). For the same compound, the GI50 (TK-10) was > 100 µM (inactive), the GI50 (Malme-3M) was > 100 µM (inactive) and the GI50 (SF-295) was > 100 µM (inactive). The GI50 (SF-539) was > 100 µM (inactive), the GI50 (RXF 393) was > 100 µM (inactive) and the GI50 (BT-549) was > 100 µM (inactive). For the same compound, the GI50 (SK-MEL-5) was > 100 µM (inactive), the GI50 (NCI/ADR-RES) was > 100 µM (inactive) and the GI50 (HCT-15) was over 100 µM. The GI50 (OVCAR-8) was > 100 µM (inactive), the GI50 (K562) was > 100 µM (inactive) and the GI50 (UACC-257) was > 100 µM (inactive). The GI50 (CCRF-CEM) was > 100 µM (inactive), the GI50 (T47D) was 73.8 µM (inactive) and the GI50 (EKVX) was > 100 µM (inactive). For the same compound, the GI50 (KM12) was > 100 µM (inactive), the GI50 (PC-3) was > 100 µM (inactive) and the GI50 (SK-MEL-28) was > 100 µM (inactive). For the same compound, the GI50 (A549) was > 100 µM (inactive), the GI50 (M14) was > 100 µM (inactive) and the GI50 (MOLT-4) was 9.71 µM (inactive). The GI50 (NCI-H460) was > 100 µM (inactive), the GI50 (ACHN) was > 100 µM (inactive) and the GI50 (SF-268) was > 100 µM (inactive). The GI50 (U-251) was > 100 µM (inactive), the GI50 (HCT-116) was > 100 µM (inactive) and the GI50 (HT-29) was > 100 µM (inactive). For the same compound, the GI50 (HOP-62) was > 100 µM (inactive).
`CCN1C2=NCCN2S(=O)(=O)c2ccccc21` was tested, and the GI50 (Hs-578T) was > 100 µM (inactive), the GI50 (NCI-H23) was > 100 µM (inactive) and the GI50 (NCI-H226) was > 100 µM (inactive). The GI50 (A498) was > 100 µM (inactive), the GI50 (COLO 205) was > 100 µM (inactive) and the GI50 (OVCAR-5) was > 100 µM (inactive). For the same compound, the GI50 (UO-31) was > 100 µM (inactive), the GI50 (MDA-MB-435) was > 100 µM (inactive) and the GI50 (IGROV-1) was > 100 µM (inactive). The GI50 (CAKI-1) was > 100 µM (inactive), the GI50 (786-0) was > 100 µM (inactive) and the GI50 (SN12C) was > 100 µM (inactive). The GI50 (OVCAR-3) was > 100 µM (inactive), the GI50 (MCF7) was > 100 µM (inactive) and the GI50 (LOX IMVI) was > 100 µM (inactive). For the same compound, the GI50 (MDA-MB-231) was > 100 µM (inactive), the GI50 (DU-145) was > 100 µM (inactive) and the GI50 (SK-MEL-2) was > 100 µM (inactive). For the same compound, the GI50 (SW-620) was > 100 µM (inactive), the GI50 (HOP-92) was > 100 µM (inactive) and the GI50 (OVCAR-4) was > 100 µM (inactive). The GI50 (SNB-19) was > 100 µM (inactive), the GI50 (MDA-N) was > 100 µM (inactive) and the GI50 (UACC-62) was > 100 µM (inactive). For the same compound, the GI50 (SK-OV-3) was > 100 µM (inactive), the GI50 (HCC 2998) was > 100 µM (inactive) and the GI50 (TK-10) was > 100 µM (inactive). For the same compound, the GI50 (SF-295) was > 100 µM (inactive), the GI50 (SF-539) was > 100 µM (inactive) and the GI50 (RXF 393) was > 100 µM (inactive). The GI50 (BT-549) was > 100 µM (inactive), the GI50 (SK-MEL-5) was > 100 µM (inactive) and the GI50 (NCI/ADR-RES) was > 100 µM (inactive). The GI50 (HCT-15) was over 100 µM, the GI50 (OVCAR-8) was > 100 µM (inactive) and the GI50 (K562) was > 100 µM (inactive). The GI50 (HL-60) was > 100 µM (inactive), the GI50 (UACC-257) was > 100 µM (inactive) and the GI50 (CCRF-CEM) was > 100 µM (inactive). For the same compound, the GI50 (T47D) was > 100 µM (inactive), the GI50 (EKVX) was > 100 µM (inactive) and the GI50 (KM12) was > 100 µM (inactive). The GI50 (PC-3) was > 100 µM (inactive), the GI50 (SK-MEL-28) was > 100 µM (inactive) and the GI50 (A549) was > 100 µM (inactive). The GI50 (M14) was > 100 µM (inactive), the GI50 (MOLT-4) was > 100 µM (inactive) and the GI50 (NCI-H460) was > 100 µM (inactive). For the same compound, the GI50 (ACHN) was > 100 µM (inactive), the GI50 (SF-268) was > 100 µM (inactive) and the GI50 (U-251) was > 100 µM (inactive). For the same compound, the GI50 (HCT-116) was > 100 µM (inactive), the GI50 (HT-29) was > 100 µM (inactive) and the GI50 (NCI-H522) was 59 µM (inactive). For the same compound, the GI50 (HOP-62) was > 100 µM (inactive).
